From ChEMBL document CHEMBL1201862, “PubChem BioAssay data set” (2004)
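1) Cells in 96-well plates. 2) Compound, 48 h, 5 concentrations. 3) Linear interpolation between surrounding doses. 4) Unreached endpoint = highest concentration. Abbreviation: GI50, concentration required for 50% inhibition of growth.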 Active and inactive are the calls of the source. Cut-off read from the data, not from the text of the source: active = GI50 up to about 1.1 µM and inactive = higher.

Experiments:
Experiment in all cases: DTP human tumour cell line panel, 48 h
SNB-19 = test system: SNB-19
IGROV-1 = test system: IGROV-1
Malme-3M = test system: Malme-3M
SF-295 = test system: SF-295
A549 = test system: A549
A498 = test system: A498
NCI-H522 = test system: NCI-H522
U-251 = test system: U-251
NCI-H460 = test system: NCI-H460
UACC-257 = test system: UACC-257
HCC 2998 = test system: HCC 2998
NCI/ADR-RES = test system: NCI/ADR-RES
OVCAR-8 = test system: OVCAR-8
OVCAR-5 = test system: OVCAR-5
MDA-MB-231 = test system: MDA-MB-231
RPMI-8226 = test system: RPMI-8226
MDA-N = test system: MDA-N
UACC-62 = test system: UACC-62
LOX IMVI = test system: LOX IMVI
SR = test system: SR

## Cc1ccc(S(=O)ON2CCC(C(=O)O)(c3ccccc3)CC2)cc1 (stereo unspecified)
SNB-19
  GI50: > 100 µM (inactive)
IGROV-1
  GI50: > 100 µM (inactive)
Malme-3M
  GI50: > 100 µM (inactive)
SF-295
  GI50: > 100 µM (inactive)
A549
  GI50: > 100 µM (inactive)
A498
  GI50: > 100 µM (inactive)
NCI-H522
  GI50: > 100 µM (inactive)
U-251
  GI50: > 100 µM (inactive)
NCI-H460
  GI50: > 100 µM (inactive)
UACC-257
  GI50: > 100 µM (inactive)
HCC 2998
  GI50: > 100 µM (inactive)
NCI/ADR-RES
  GI50: > 100 µM (inactive)
OVCAR-8
  GI50: > 100 µM (inactive)
OVCAR-5
  GI50: > 100 µM (inactive)
MDA-MB-231
  GI50: > 100 µM (inactive)
RPMI-8226
  GI50: > 100 µM (inactive)
MDA-N
  GI50: > 100 µM (inactive)
UACC-62
  GI50: > 100 µM (inactive)
LOX IMVI
  GI50: > 100 µM (inactive)

## CC(=O)Oc1ccc(-c2nnc(-c3ccc(OC(C)=O)cc3)nn2)cc1
SNB-19
  GI50: > 100 µM (inactive)
IGROV-1
  GI50: > 100 µM (inactive)
Malme-3M
  GI50: > 100 µM (inactive)
SR
  GI50: 20.4 µM (inactive)
SF-295
  GI50: > 100 µM (inactive)
A549
  GI50: > 100 µM (inactive)
A498
  GI50: > 100 µM (inactive)
NCI-H522
  GI50: > 100 µM (inactive)
U-251
  GI50: > 100 µM (inactive)
NCI-H460
  GI50: > 100 µM (inactive)
UACC-257
  GI50: > 100 µM (inactive)
NCI/ADR-RES
  GI50: 38.8 µM (inactive)
OVCAR-8
  GI50: > 100 µM (inactive)
OVCAR-5
  GI50: > 100 µM (inactive)
MDA-MB-231
  GI50: > 100 µM (inactive)
RPMI-8226
  GI50: > 100 µM (inactive)
MDA-N
  GI50: > 100 µM (inactive)
UACC-62
  GI50: > 100 µM (inactive)
LOX IMVI
  GI50: > 100 µM (inactive)

## ClC1(Cl)C2CCOC21n1cnc2ccccc21 (stereo unspecified)
SNB-19
  GI50: > 100 µM (inactive)
IGROV-1
  GI50: > 100 µM (inactive)
Malme-3M
  GI50: > 100 µM (inactive)
SR
  GI50: > 100 µM (inactive)
SF-295
  GI50: > 100 µM (inactive)
A549
  GI50: > 100 µM (inactive)
NCI-H522
  GI50: 14.6 µM (inactive)
U-251
  GI50: > 100 µM (inactive)
HCC 2998
  GI50: > 100 µM (inactive)
NCI/ADR-RES
  GI50: > 100 µM (inactive)
OVCAR-8
  GI50: > 100 µM (inactive)
OVCAR-5
  GI50: > 100 µM (inactive)
MDA-MB-231
  GI50: > 100 µM (inactive)
RPMI-8226
  GI50: > 100 µM (inactive)
MDA-N
  GI50: > 100 µM (inactive)
UACC-62
  GI50: 92.9 µM (inactive)
LOX IMVI
  GI50: 98.2 µM (inactive)

## CC(=O)c1ccc2c3c1[C@@H]1O[C@@H]1c1cccc(c1-3)[C@@H]1O[C@H]21
SNB-19
  GI50: 20.3 µM (inactive)
IGROV-1
  GI50: 0.782 µM (active)
Malme-3M
  GI50: 7.4 µM (inactive)
SR
  GI50: > 100 µM (inactive)
SF-295
  GI50: 15 µM (inactive)
A549
  GI50: 14.5 µM (inactive)
A498
  GI50: 21.5 µM (inactive)
NCI-H522
  GI50: 5.4 µM (inactive)
U-251
  GI50: 6.62 µM (inactive)
UACC-257
  GI50: 16.9 µM (inactive)
NCI/ADR-RES
  GI50: 13.7 µM (inactive)
OVCAR-8
  GI50: 3.94 µM (inactive)
OVCAR-5
  GI50: 17.7 µM (inactive)
MDA-MB-231
  GI50: 17.7 µM (inactive)
RPMI-8226
  GI50: 5.05 µM (inactive)
MDA-N
  GI50: 13.5 µM (inactive)
UACC-62
  GI50: 14 µM (inactive)
LOX IMVI
  GI50: 2.07 µM (inactive)

## C=CC1(c2ccc(Br)cc2)OCCCO1
SNB-19
  GI50: > 100 µM (inactive)
IGROV-1
  GI50: > 100 µM (inactive)
Malme-3M
  GI50: > 100 µM (inactive)
SR
  GI50: > 100 µM (inactive)
SF-295
  GI50: > 100 µM (inactive)
A549
  GI50: > 100 µM (inactive)
NCI-H522
  GI50: > 100 µM (inactive)
U-251
  GI50: > 100 µM (inactive)
NCI-H460
  GI50: > 100 µM (inactive)
UACC-257
  GI50: > 100 µM (inactive)
HCC 2998
  GI50: > 100 µM (inactive)
NCI/ADR-RES
  GI50: > 100 µM (inactive)
OVCAR-8
  GI50: > 100 µM (inactive)
OVCAR-5
  GI50: > 100 µM (inactive)
MDA-MB-231
  GI50: > 100 µM (inactive)
RPMI-8226
  GI50: > 100 µM (inactive)
MDA-N
  GI50: > 100 µM (inactive)
UACC-62
  GI50: > 100 µM (inactive)
LOX IMVI
  GI50: > 100 µM (inactive)

## C=CCN1C[C@H](C)N([C@H](c2ccc(C(=O)N(CC)CC)cc2)c2cccc(OC)c2)C[C@H]1C [SNC-80]
SNB-19
  GI50: > 100 µM (inactive)
IGROV-1
  GI50: 35.2 µM (inactive)
Malme-3M
  GI50: 16.7 µM (inactive)
SR
  GI50: 39.5 µM (inactive)
SF-295
  GI50: 19.9 µM (inactive)
A549
  GI50: 54.3 µM (inactive)
A498
  GI50: 13 µM (inactive)
NCI-H522
  GI50: 36.3 µM (inactive)
U-251
  GI50: 44.9 µM (inactive)
UACC-257
  GI50: 19.5 µM (inactive)
NCI/ADR-RES
  GI50: 39.4 µM (inactive)
OVCAR-8
  GI50: > 100 µM (inactive)
OVCAR-5
  GI50: > 100 µM (inactive)
MDA-MB-231
  GI50: 77.8 µM (inactive)
RPMI-8226
  GI50: 29.1 µM (inactive)
MDA-N
  GI50: 53.1 µM (inactive)
UACC-62
  GI50: 34.1 µM (inactive)

## CCOC(=O)c1c(-c2ccc(Cl)cc2)c(C#N)c(=S)n(C2OC(CO)C(O)C(O)C2O)c1-c1ccccc1 (stereo unspecified)
SNB-19
  GI50: 22.8 µM (inactive)
IGROV-1
  GI50: 33.7 µM (inactive)
Malme-3M
  GI50: 40.8 µM (inactive)
SR
  GI50: 33.1 µM (inactive)
SF-295
  GI50: 20.4 µM (inactive)
A549
  GI50: 34.2 µM (inactive)
U-251
  GI50: 17 µM (inactive)
NCI-H460
  GI50: 26.9 µM (inactive)
UACC-257
  GI50: 27.5 µM (inactive)
HCC 2998
  GI50: 28.9 µM (inactive)
NCI/ADR-RES
  GI50: 46.9 µM (inactive)
OVCAR-5
  GI50: 21.8 µM (inactive)
MDA-MB-231
  GI50: 31.2 µM (inactive)
RPMI-8226
  GI50: 34.7 µM (inactive)
MDA-N
  GI50: 23 µM (inactive)
UACC-62
  GI50: 18.7 µM (inactive)
LOX IMVI
  GI50: 14.6 µM (inactive)
